Assay results taken from patent publication US20240326697A1, “SOLID FORMS OF SELECTIVE ANDROGEN RECEPTOR MODULATORS” (priority 2007, published 2024).
≈ marks a conversion by molar mass, not a printed value. Marks after values point to notes of the source that are not given here.

Tests used:
Format in all cases: physicochemical
[1] = Relative stability of polymorphic forms under dry conditions (heating, micronization)
Description: (§1) Thermal analysis was carried out with a Perkin Elmer DSC7 with the following experimental conditions: 3 to 6 mg sample mass, closed gold sample pan, temperature range −50° C. to 120° C., heating rate 20 K/min. The samples were weighed in air or dry N2 atmosphere. Additional thermal analysis was conducted using a TA Instruments Q1000 DSC using hermetic aluminum pans under various conditions.
Thus forms A and B″ can be considered to be practically stable at ambient temperature. […] Micronization of the polymorph A particles under dry conditions also produced ˜25% conversion to B″.

[2] = Water vapor sorption (humidity chamber) and aqueous suspension, form produced; details: for form B′ formed: powder stored in humidified chamber 96% r.h./23° C. (room temperature), 11 weeks, Raman and DSC
Description: The compound was stored in a glass tube under 96% r.h. (relative humidity) in a humidity chamber at room temperature. After different time of storage Raman measurements were conducted using hermetically closed glass tubes.

[3] = Relative stability of polymorphic forms under humid conditions (storage, DSC)
Description: as §1
Polymorph A stays stable in its A form for at least 7 days under storage conditions of ambient temperature/75% RH (Relative Humidity), ambient temperature/100% RH, 30° C./75% RH and 50° C./0% RH.
In fact, polymorph D in the presence of moisture acts as the seed for the crystallization process and drives the transformation of polymorphs A and B′ into D, similar to its role in seeding the A to D crystallization in dry conditions. […] The amount of polymorph D initially added to the sample is very small that it isn't detectable by the DSC with heating rate of 10° C./min. […] The transformation process is speeded up in FIG. 17G (b) by storing the sample in water at 50° C. […] Further work has shown that the A and B′ convert to D in the presence of moisture at lower temperatures also albeit at slower rates.

[4] = Water solubility of solid forms A and B′ (suspension shaken, filtered, HPLC; residue by Raman); details: for Solid residue: Raman, rough estimate
Description: During the following experiments: suspension equilibration, precipitation experiment, recrystallization, relative stability experiments and water solubility experiment, a filtration step was conducted. Centrifugal filter devices: Ultrafree-CL (0.22 la,m), Millipore; Centrifuge type or Eppendorf 5804R were used at a temperature of 22° C. and centrifugation program of 2 min 3000 rpm.
HPLC was used to analyse the purity of S-1. HP 1090M HPLC machine was used with the following conditions: • Column: Symmetry Shield RP18, 3.9×150 mm, 5 μm • Column temperature: 35° C. • Injection volume: 10 μL • Solvent: acetonitrile+water 1:1 v/v • Mobile phase A: 0.1% TFA-water • Mobile phase B: 0.1% TFA-acetonitrile • Flow rate: 1 mL/min. • Detection: UV at 271 nm • Run time: 21 min. • Retention time (S-1): 10.7 min.
Suspensions of the solid forms (25 or 50 mg in 3.5 or 7.0 ml bidistilled water) were shaken (800 rpm) and filtered after 0.5 h, 1.5 h, 4 h and 20 h. After filtration the solid residue was checked by Raman spectroscopy and the concentration in the clear solution was determined by HPLC.

[5] = Dynamic vapor sorption (DVS); details: 25° C.
Description: Dynamic vapor sorption quantification relates the mass of water absorbed and subsequently desorbed during the crystallization process. In order to define whether batch P1, P2 and P4 are hydrated polymorphs, DVS measurements were conducted (FIG. 9). A sample (13 to 14 mg) was placed on a Pt pan, and the sample was allowed to equilibrate at 25° C./50% r.h. before starting a pre-defined humidity program (1.0 hours 50%, from 50% r.h. to 95% r.h.: 5% r.h./hour, 10 hours at 95% r.h., from 95% r.h. to 0% r.h.: 5% r.h./hour, 10 hours at 0% r.h., from 0% r.h. to 50% r.h.: 5% r.h./hour, 1 hours at 50% r.h.

[6] = Suspension equilibration experiments; details: stirred 20 h/23° C.
Description: Suspension equilibration experiments were carried out with 81-128 mg of the compound. The suspensions were stirred with a magnetic stirrer. The samples obtained after filtration were air dried at ambient temperature for a short time only to prevent possible desolvation of labile hydrates or solvates.

[7] = Measurement of the approximate solubility (solvent added in steps to the solid); details: 23 °C, read-out: Solubility
Description: To determine the approximate solubility at room temperature, the solvent was added in steps to the solid material. After every addition, the sample was well stirred. The addition of solvent was continued until complete dissolution or until 15 ml of solvent was added.

C[C@](O)(COc1ccc(C#N)cc1)C(=O)Nc1ccc(C#N)c(C(F)(F)F)c1 [Form A, (S)-N-(4-cyano-3-(trifluoromethyl)phenyl)-3-(4-cyanophenoxy)-2-hydroxy-2-methylpropanamide]
solid form change on heating ([1]; heating to 110° C. in the presence of D): rearrange into D
conversion to B″ ([1]; micronization of the particles under dry conditions): ~25%
form B′ formed ([2]; listed as A): ~20% form B′
form B′ formed ([2]; listed as form A): approx. 20%
Form produced ([2]; powder stored in humidified chamber 96% r.h./23° C., 4 weeks): A + small
Form produced ([2]; powder stored in humidified chamber 96% r.h./23° C., 9 weeks): A + form B′
Form produced ([2]; suspension in water 111/5.0 mg/ml, sonication 5 min., stirred 19 h/37° C., filtered & air dried): B′
Form produced ([2]; water + 5% acetic acid v/v 105/2.0 mg/ml, stirred 17 h/40° C., cooled to R.T. and removed solution): B′
Form produced ([2]; water + 5% ethanol v/v 123/2.1 mg/ml, stirred 3 h/83° C., cooled to 47° C. within 1.5 h, filtered & air dried): B′
solid form change, seeded with a small amount of D ([3]; 50° C./75% RH, after 24 hours): most of the polymorph form A has been converted to B′ but a small amount of sample has also been converted to D
time stable in its A form on storage ([3]; each of ambient temperature/75% RH, ambient temperature/100% RH, 30° C./75% RH and 50° C./0% RH): at least 7 days
stable through (storage time) ([3]; stored at 25° C./60% RH): ≥ 36 months
stable through (storage time) ([3]; stored at 30° C./65% RH): ≥ 9 months
solid form change on storage ([3]; stored at 40° C./75% RH): converts to B′ when stored at 40° C./75% RH within one month
solid form change on storage ([3]; stored at 40° C./75% RH, listed as polymorph A): converted to B′ within one month
solid form change on storage ([3]; stored at 50° C./75% RH): converts to B′
solid form change, seeded with a small amount of D ([3]; stored in water at 50° C., after 6 hours): converted to both B′ and D
solid form change, seeded with a small amount of D ([3]; stored in water at 50° C., by 24 hours): predominantly in form D
solubility in water ([4]; 22° C., stated as embodiment): 0.023 to 0.027 mg/mL
Solid residue ([4]; water, 22° C., 0.5 h): A + B′ (approx. 95% + 5%) ^c)
Solid residue ([4]; water, 22° C., 1.5 h): A + B′ (approx. 90% + 10%) ^c)
Solid residue ([4]; water, 22° C., 4.0 h): A + B′ (approx. 85% + 15%) ^c)
Solid residue ([4]; water, 22° C., 20 h): A + B′ (approx. 75% + 25%) ^c)
pH of the solution ([4]; water, 22° C., 20 h suspension equilibration): ^d) pH of the solution: 8.7
solubility ([4]; water, 22° C., suspension equilibration time 0.5 h, mean of two measurements (±standard deviation)): 21.0 ± 3.9 mg/1000 ml
solubility ([4]; water, 22° C., suspension equilibration time 1.5 h, mean of two measurements (±standard deviation)): 24.0 ± 1.4 mg/1000 ml
solubility ([4]; water, 22° C., suspension equilibration time 1.5 h, mean of two measurements (±standard deviation), listed as A): 24.0±1.4 mg/1000 ml
solubility ([4]; water, 22° C., suspension equilibration time 4.0 h, mean of two measurements (±standard deviation)): 27.6 ± 1.5 mg/1000 ml
solubility ([4]; water, 22° C., suspension equilibration time 20 h, mean of two measurements (±standard deviation)): 24.5 ± 1.7 ^d) mg/1000 ml
solubility ([4]; water, 22 °C, water, thermodynamic from solid, stated as embodiment, read-out: solubility in water): 0.02 to 0.03 mg/mL (≈ 0.0514 to 0.0771 mM)
maximum water content at 93% r.h. [5]: 1.5%
Form produced ([6]; ethyl formate + n-pentane 1:2 v/v 112/2.0 mg/ml): no transformation of solid form A
Form produced ([6]; methyl acetate + n-pentane 1:2 v/v 126/2.0 mg/ml): no transformation of solid form A
solubility ([7]; 1,4-dioxane, organic solvent or mixture, thermodynamic from solid, 1,4-dioxane, 23° C.): > 200 mg/mL
solubility ([7]; TBME, organic solvent or mixture, thermodynamic from solid, TBME, 23° C.): > 200 mg/mL
solubility ([7]; THF, organic solvent or mixture, thermodynamic from solid, THF, 23° C.): > 200 mg/mL
solubility ([7]; THF/n-heptane 1:1 v/v, organic solvent or mixture, thermodynamic from solid, THF/n-heptane 1:1 v/v, 23° C.): > 200 mg/mL
solubility ([7]; THF/n-heptane 1:3 v/v, organic solvent or mixture, thermodynamic from solid, THF/n-heptane 1:3 v/v, 23° C.): 65 mg/mL (≈ 167 mM)
solubility ([7]; acetic acid, organic solvent or mixture, thermodynamic from solid, acetic acid, 23° C.): > 200 mg/mL
solubility ([7]; acetone, organic solvent or mixture, thermodynamic from solid, acetone, 23° C.): > 200 mg/mL
solubility ([7]; acetone/n-heptane 1:1 v/v, organic solvent or mixture, thermodynamic from solid, acetone/n-heptane 1:1 v/v, 23° C.): > 200 mg/mL
solubility ([7]; acetone/n-heptane 1:3 v/v, organic solvent or mixture, thermodynamic from solid, acetone/n-heptane 1:3 v/v, 23° C.): 90 mg/mL (≈ 231 mM)
solubility ([7]; acetonitrile, organic solvent or mixture, thermodynamic from solid, acetonitrile, 23° C.): > 200 mg/mL
solubility ([7]; acetonitrile/toluene 1:1 v/v, organic solvent or mixture, thermodynamic from solid, acetonitrile/toluene 1:1 v/v, 23° C.): > 200 mg/mL
solubility ([7]; acetonitrile/toluene 1:3 v/v, organic solvent or mixture, thermodynamic from solid, acetonitrile/toluene 1:3 v/v, 23° C.): 170 mg/mL (≈ 437 mM)
solubility ([7]; dichloromethane, organic solvent or mixture, thermodynamic from solid, dichloromethane, 23° C.): > 200 mg/mL
solubility ([7]; ethanol, organic solvent or mixture, thermodynamic from solid, ethanol, 23° C.): > 200 mg/mL
solubility ([7]; ethanol/n-heptane 1:1 v/v, organic solvent or mixture, thermodynamic from solid, ethanol/n-heptane 1:1 v/v, 23° C.): 180 mg/mL (≈ 462 mM)
solubility ([7]; ethanol/n-heptane 1:3 v/v, organic solvent or mixture, thermodynamic from solid, ethanol/n-heptane 1:3 v/v, 23° C.): 50 mg/mL (≈ 128 mM)
solubility ([7]; ethanol/water 1:1 v/v, aqueous with cosolvent or surfactant or cyclodextrin, thermodynamic from solid, ethanol/water 1:1 v/v, 23° C.): 50 mg/mL (≈ 128 mM)
solubility ([7]; ethanol/water 1:3 v/v, aqueous with cosolvent or surfactant or cyclodextrin, thermodynamic from solid, ethanol/water 1:3 v/v, 23° C.): < 5 mg/mL
solubility ([7]; ethanol/water 3:1 v/v, aqueous with cosolvent or surfactant or cyclodextrin, thermodynamic from solid, ethanol/water 3:1 v/v, 23° C.): > 200 mg/mL
solubility ([7]; ethyl acetate, organic solvent or mixture, thermodynamic from solid, ethyl acetate, 23° C.): > 200 mg/mL
solubility ([7]; ethyl acetate/n-heptane 1:1 v/v, organic solvent or mixture, thermodynamic from solid, ethyl acetate/n-heptane 1:1 v/v, 23° C.): 65 mg/mL (≈ 167 mM)
solubility ([7]; ethyl acetate/n-heptane 1:2 v/v, organic solvent or mixture, thermodynamic from solid, ethyl acetate/n-heptane 1:2 v/v, 23° C. (B′: solid form transformation into solid form A)): 9 mg/mL (≈ 23.1 mM)
solubility ([7]; ethyl acetate/n-heptane 1:3 v/v, organic solvent or mixture, thermodynamic from solid, ethyl acetate/n-heptane 1:3 v/v, 23° C. (turbid solution)): < 5 mg/mL
solubility ([7]; ethyl acetate/n-pentane 1:2 v/v, organic solvent or mixture, thermodynamic from solid, ethyl acetate/n-pentane 1:2 v/v, 23° C.): 13 mg/mL (≈ 33.4 mM)
solubility ([7]; ethyl formate/n-pentane 1:2 v/v, organic solvent or mixture, thermodynamic from solid, ethyl formate/n-pentane 1:2 v/v, 23° C.): 12 mg/mL (≈ 30.8 mM)
solubility ([7]; methyl acetate/n-pentane 1:2 v/v, organic solvent or mixture, thermodynamic from solid, methyl acetate/n-pentane 1:2 v/v, 23° C.): 8 mg/mL (≈ 20.5 mM)
solubility ([7]; toluene, organic solvent or mixture, thermodynamic from solid, toluene, 23° C. (turbid solution)): < 6 mg/mL
